{
  "source": "patent US8388671B2",
  "about": "“Methods for treatment of aneurysmal tissue” (Medtronic Vascular, Inc., priority 2004, dated 2013)",
  "origin": "cited, not measured here",
  "key": {"[1]": {"system": "rabbits"}, "[2]": {"system": "mice"}},
  "data": [
    {"substance": "hydroxy-polyethoxy-dodecane [Polidocanol]", "values": [
      {"measurement": "LD50 in rabbits", "setting": "[1]", "value": 200, "unit": "mg/kg"},
      {"measurement": "LD50 relative to that of Novocain", "setting": "[1]; LD50 greater than that of Novocain", "value": "approximately 5 times"},
      {"measurement": "LD50 in mice", "setting": "[2]", "value": 1200, "unit": "mg/kg"}
    ]}
  ]
}
